Experimental data as given in the NIST ThermoML archive (doi:10.1016/j.jct.2018.03.016).
± gives the expanded uncertainty stated by the source.

Conditions: Liquid; for mass density: Vibrating tube method; for speed of sound: Frequency=5 MHz, Single path-length method

CCC(=O)[O-].[NH3+]CCO [2-hydroxyethan-1-aminium propionate]
Conditions | mass density [kg/m3] | speed of sound [m/s]
298.08 K, 10000 kPa | 1124.9 ± 1.4 | –
298.1 K, 30000 kPa | 1131.1 ± 1.5 | –
298.11 K, 15000 kPa | 1127.6 ± 1.4 | –
298.13 K, 35000 kPa | 1132.5 ± 1.5 | –
298.15 K, 20000 kPa | 1128.2 ± 1.4 | –
298.15 K, 25000 kPa | 1129.4 ± 1.4 | –
298.16 K, 100 kPa | 1121.1 ± 1.3 | –
303.03 K, 30000 kPa | 1126.3 ± 1.5 | –
303.07 K, 25000 kPa | 1124.9 ± 1.4 | –
303.07 K, 35000 kPa | 1127.2 ± 1.5 | –
303.09 K, 10000 kPa | 1121 ± 1.4 | –
303.09 K, 15000 kPa | 1121.8 ± 1.4 | –
303.1 K, 20000 kPa | 1123.3 ± 1.4 | –
303.15 K, 100 kPa | 1116 ± 1.3 | 1554.7 ± 3.8
303.15 K, 1000 kPa | – | 1558.7 ± 3.8
303.15 K, 2000 kPa | – | 1562.7 ± 3.8
303.15 K, 3000 kPa | – | 1566.7 ± 3.8
303.15 K, 4000 kPa | – | 1570.7 ± 3.8
303.15 K, 5000 kPa | – | 1574.7 ± 3.8
303.15 K, 6000 kPa | – | 1578.8 ± 3.8
303.15 K, 7000 kPa | – | 1582.9 ± 3.8
303.15 K, 8000 kPa | – | 1587 ± 3.8
303.15 K, 9000 kPa | – | 1591.1 ± 3.8
303.15 K, 10000 kPa | – | 1595.2 ± 3.8
303.15 K, 11000 kPa | – | 1599.4 ± 3.8
303.15 K, 12000 kPa | – | 1602.1 ± 3.8
303.15 K, 13000 kPa | – | 1606.3 ± 3.8
303.15 K, 14000 kPa | – | 1610.5 ± 3.8
303.15 K, 15000 kPa | – | 1613.3 ± 3.8
303.15 K, 16000 kPa | – | 1617.6 ± 3.8
303.15 K, 17000 kPa | – | 1620.4 ± 3.8
303.15 K, 18000 kPa | – | 1624.6 ± 3.8
303.15 K, 19000 kPa | – | 1628.9 ± 3.8
303.15 K, 20000 kPa | – | 1633.2 ± 3.8
313.14 K, 100 kPa | 1105.3 ± 1.3 | –
313.15 K, 100 kPa | – | 1526.8 ± 3.8
313.15 K, 1000 kPa | – | 1531.9 ± 3.8
313.15 K, 2000 kPa | – | 1535.7 ± 3.8
313.15 K, 3000 kPa | – | 1539.5 ± 3.8
313.15 K, 4000 kPa | – | 1542.1 ± 3.8
313.15 K, 5000 kPa | – | 1546 ± 3.8
313.15 K, 6000 kPa | – | 1549.9 ± 3.8
313.15 K, 7000 kPa | – | 1553.8 ± 3.8
313.15 K, 8000 kPa | – | 1557.8 ± 3.8
313.15 K, 9000 kPa | – | 1561.7 ± 3.8
313.15 K, 10000 kPa | – | 1565.7 ± 3.8
313.15 K, 11000 kPa | – | 1569.7 ± 3.8
313.15 K, 12000 kPa | – | 1573.7 ± 3.8
313.15 K, 13000 kPa | – | 1577.7 ± 3.8
313.15 K, 14000 kPa | – | 1581.7 ± 3.8
313.15 K, 15000 kPa | – | 1585.8 ± 3.8
313.15 K, 16000 kPa | – | 1589.9 ± 3.8
313.15 K, 17000 kPa | – | 1594 ± 3.8
313.15 K, 18000 kPa | – | 1598.1 ± 3.8
313.15 K, 19000 kPa | – | 1602.2 ± 3.8
313.15 K, 20000 kPa | – | 1606.4 ± 3.8
313.16 K, 15000 kPa | 1111.3 ± 1.4 | –
313.17 K, 10000 kPa | 1110.2 ± 1.4 | –
313.17 K, 35000 kPa | 1117.8 ± 1.5 | –
313.18 K, 20000 kPa | 1113.3 ± 1.4 | –
313.18 K, 30000 kPa | 1116.2 ± 1.4 | –
313.19 K, 25000 kPa | 1114.8 ± 1.4 | –
323.09 K, 10000 kPa | 1098.3 ± 1.3 | –
323.1 K, 100 kPa | 1093 ± 1.3 | –
323.1 K, 25000 kPa | 1103.9 ± 1.4 | –
323.12 K, 30000 kPa | 1105.5 ± 1.4 | –
323.14 K, 15000 kPa | 1099.7 ± 1.4 | –
323.14 K, 20000 kPa | 1102 ± 1.4 | –
323.14 K, 35000 kPa | 1107.3 ± 1.4 | –
323.15 K, 100 kPa | – | 1506.1 ± 3.8
323.15 K, 1000 kPa | – | 1509.8 ± 3.8
323.15 K, 2000 kPa | – | 1513.6 ± 3.8
323.15 K, 3000 kPa | – | 1517.3 ± 3.8
323.15 K, 4000 kPa | – | 1521.1 ± 3.8
323.15 K, 5000 kPa | – | 1524.9 ± 3.8
323.15 K, 6000 kPa | – | 1528.7 ± 3.8
323.15 K, 7000 kPa | – | 1533.8 ± 3.8
323.15 K, 8000 kPa | – | 1537.6 ± 3.8
323.15 K, 9000 kPa | – | 1541.5 ± 3.8
323.15 K, 10000 kPa | – | 1545.4 ± 3.8
323.15 K, 11000 kPa | – | 1549.2 ± 3.8
323.15 K, 12000 kPa | – | 1553.2 ± 3.8
323.15 K, 13000 kPa | – | 1558.4 ± 3.8
